Values quoted from earlier work as cited in patent US6720472B2, “HMGI proteins in cancer and obesity” (University of Medicine and Dentistry of New Jersey, priority 1996, dated 2004).
Entries after “also recorded” stand apart in the source; their conditions may differ. Read-outs that look alike come from different tables or passages of the source.

Experiments:
HMG-I proteins = conditions: in vitro, A T-rich DNA
[1] = test system: ascites tumors [Ehrlich and sarcoma 180 (S180)]
[2] = test system: solid tumors (Ehrlich carcinoma, S180, Walker carcinoma, and Oberling-Guerin-Guerin myeloma)
[3] = test system: B-DNA dodecamer of sequence C-G-C-G-A-A-T-T-BrC-G-C-G; conditions: X-ray analysis of the complex

competition with the BD peptide and the HMG-I proteins for DNA binding (HMG-I proteins; listed as distamycin)	Compound	competition with the BD peptide and the HMG-I proteins for DNA binding (HMG-I proteins)	inhibition on ascites tumors ([1]; Ehrlich and sarcoma 180 (S180) ascites tumors)	mitotic damages of tumor cells ([1]; Ehrlich ascites tumor)	mitotic index of the Ehrlich ascites tumor ([1]; Ehrlich ascites tumor)	growth of solid tumors [2]	binding site on DNA [3]
effectively compete	Cn1cc(NC(=O)c2cc(NC(=O)c3cc(NC=O)cn3C)cn2C)cc1C(=O)NCCC(=N)N [distamycin A]	compete with the HMGI proteins for binding to AT-rich DNA	strong inhibition	induces mitotic damages	decrease the mitotic index	delays the growth	
	CN1CCN(c2ccc3[nH]c(-c4ccc5[nH]c(-c6ccc(O)cc6)nc5c4)nc3c2)CC1 [Hoechst 33258, Hoechst 33258 (bisbenzimide)]	compete with the HMGI proteins for binding to AT-rich DNA; also recorded: effectively compete					
	Cn1cc(NC(=O)c2cc(NC(=O)CN=C(N)N)cn2C)cc1C(=O)NCCC(=N)N [netropsin]	compete with the HMGI proteins for binding to AT-rich DNA; also recorded: effectively compete					binds within the minor groove
